Source: US10512271B2, “Method for preventing or treating microbial growth on a manufactured product” (Stellenbosch University, priority 2014, dated 2019)
Square brackets hold non-standard residues; d marks the D form. Peptide text beside a SMILES is read from it. ξ: configuration not given here. Orn = NCCC[C@H](N)C(=O)O; ξP = O=C(O)C1CCCN1

Columns and labels:
M. luteus = assay: Cell viability (vitality) assay, low nutrient environment, high cell count; format: cell-based, Micrococcus luteus
Protocol: Treated and untreated matrixes (filters, membrane and films) were punched into 5 mm disks and triplicate disks were transferred to black […] microplates. A mid-log phase M. luteus culture was diluted with LB media to A620 of 0.20 (1.3×10^7 CFU/mL). Each well received […] of the diluted culture ([…]) on top of the 5 mm disk. The plate was incubated at 37° C. for one hour after which 90 μL phosphate-buffered saline (PBS) and 10 μL CellTiter-Blue® Reagent was added to each well. The plate was again incubated for 2 hours at 37° C. After the […] incubation in the low nutrient environment, the fluorescence was determined at an excitation wavelength of 530 nm and emission wavelength of 590 nm. The fluorescence reading was taken with a Varioskan™ Multimode reader from Thermo Scientific™ controlled by Skanit Software 2.4.1 from Thermo Electron. Each plate was shaken for 5 seconds before measurements were taken at 25° C.
Cell viability was calculated using the equation: […]
Different filters, surfaces and nanofibers, treated with Trc extract or GS, were assessed for the more direct short-term killing of M. luteus (sterilisation) using a low nutrient environment, high cell count and the Alamar Blue vitality assay to assess bacterial metabolism. […] This could be due to the limited spreading of the 5 μL culture on the filter, limiting the contact of the bacteria with the rest of the Trc-coated filter, and thus this assay could have underestimated the overall filter activity.

[1] = Wettability of treated filters (water drop size and time to absorption); format: physicochemical
Protocol: The wettability of untreated and GS- and Trc-treated filters were determined to ascertain the effect the peptides have on the hydrophobicity of the filters. Water containing blue food colouring (50 μL) was pipetted onto untreated and treated filters and the filters were monitored for the drop size and time to complete absorption.
The wettability, an indicator of hydrophilic/hydrophobic character, could possibly be altered by the adsorption of peptide, and this change in character would be an indication of the orientation in which in the peptide adsorbed to the various filters. The wettability of untreated and treated filters was determined (Table 3) and the untreated filters were rated in terms of hydrophobicity based on the time it took for a water droplet to completely absorb into the filter. […] Trc treatment made CA much more hydrophilic, while GS also lead to an increase in hydrophilicity, indicating the exposure of the polar amino acids to the surface. Trc made the HAWP filters more hydrophobic, whereas the gramicidin S made the filter more hydrophilic.

[2] = test system: Micrococcus luteus NCTC 8340; assay: Antibacterial CFU growth assay, high nutrient environment; format: cell-based
Protocol: Micrococcus luteus NCTC 8340 was cultured from a freezer stock on Luria Bertani plates (LB: 1% (w/v) NaCl (Merck), 1% (w/v) tryptone (Merck), 0.5% (w/v) yeast extract (Merck), 1.5% (w/v) agar (BioLab) in analytical grade water) and incubated at 37° C. for a period of 48 hours. A colony inoculate in 20 mL of sterile LB broth was incubated at 37° C. until an A620=0.6 was reached. Peptide-treated matrix and a control untreated matrix were transferred to a LB agar plate (high nutrient environment). The M. luteus culture was diluted to A620 of 0.2, further diluted (2000-10000 fold) and transferred to both treated and untreated filters on the LB plate. Plates were incubated for 48 hours at 37° C., after which the matrixes were inspected for the number of colony forming units (CFU).

Gram-negative organisms = assay: Activity of treated CL filters against Gram-negative organisms; format: cell-based
red blood cells = assay: Haemolytic assay on treated filter disks; format: cell-based; conditions: peptide in solution
Protocol: Fresh blood from anonymous donors (obtained from the Western Cape Blood transfusion Service, South Africa) was transferred to a sterile Falcon® tube, filled with sterile phosphate buffered saline (PBS: 4.0% (w/v) NaCl, 0.1% (w/v) KC, 0.72% (w/v) Na2HPO4, 0.1% (w/v) KH2PO4, pH 7.2, 5× concentrated stock solution) and centrifuged at 1200×g for 3 minutes. The supernatant was removed and the process repeated. The supernatant was removed once again and remaining blood cells were used for the assays. A clear 96-well microplate was used for this assay. Three disks of each of the matrixes (treated and untreated) were placed into the wells and 4 wells received 10 μL of gramicidin S as positive haemolytic control (1.0 mg/mL). Blood (100 μL at 2% hematocrit) was pipetted into each of the wells, after which the plates were sealed and incubated at 37° C. for 2 hours. […] The absorbance was measured at 595 nm. Percentage haemolysis was calculated by adapting an equation used for dose response assays (Rautenbach, Gerstner, Vlok, Kulenkamff and Westerhoff, 2005, Anal. Biochem. 350:81-90):
A standard curve of tyrocidine doubling dilution (dose response), starting at 20 μg/mL, was used to determine the amount of Tres leading to lysis. Lysis was determined from the linear part of the dose-response curve using the equation: (% haemolysis−2.38)/5.74=[Trc] μg/mL.

[3] = Peptide adsorbed to filters, change in absorbance (A230) of incubation solution
[4] = Polycarbonate (PC, 0.45 μm pores)
[5] = Polyvinylidene difluoride (GVLP, 0.22 μm pores)
[6] = Polyvinylidene difluoride (HVLP, 0.45 μm pores)

CC(C)C[C@@H]1NC(=O)[C@H](CCCN)NC(=O)[C@H](C(C)C)NC(=O)C2CCCN2C(=O)[C@@H](Cc2ccccc2)NC(=O)[C@H](CC(C)C)NC(=O)[C@H](CCCN)NC(=O)[C@H](C(C)C)NC(=O)C2CCCN2C(=O)[C@@H](Cc2ccccc2)NC1=O (some centres unmarked) [GS, Cyclo-(VOLfPVOLfP)] (cyclo(L[dF][ξP]V[Orn]L[dF][ξP]V[Orn]))
short-term killing of M. luteus (sterilisation) (M. luteus; HDC and CL filters, FIG. 3A): Good protection
short-term killing of M. luteus (sterilisation) (M. luteus; HVLP filter, FIG. 3A): good protection
short-term killing of M. luteus (sterilisation) (M. luteus; all the other filters except PC, compared with growth assay): improved activity
Drop Diameter ([1]; Cellulose (CL, No 1)): >1 cm
Time until absorbed ([1]; Cellulose (CL, No 1)): <0.167 min
induced change in hydrophobicity ([1]; Cellulose (CL, No 1)): no change
Drop Diameter ([1]; Cellulose Acetate (CA)): 0.85 cm
Time until absorbed ([1]; Cellulose Acetate (CA)): 5.01 min
induced change in hydrophobicity ([1]; Cellulose Acetate (CA)): decrease
Drop Diameter ([1]; GSWP, 0.22 μm pores): 0.81 cm
Time until absorbed ([1]; GSWP, 0.22 μm pores): 3.55 min
induced change in hydrophobicity ([1]; GSWP, 0.22 μm pores): increase
Drop Diameter ([1]; HAWP, 0.45 μm pores): 0.96 cm
induced change in hydrophobicity ([1]; HAWP, 0.45 μm pores): slight
Time until absorbed ([1]; HAWP, 0.45 μm pores, 50 μL water drop): 2.20 min
Drop Diameter ([1]; High density cellulose (HDC)): 0.94 cm
Time until absorbed ([1]; High density cellulose (HDC)): >30 min
induced change in hydrophobicity ([1]; High density cellulose (HDC)): slight
Drop Diameter [1, 4]: 0.73 cm
Time until absorbed [1, 4]: >30 min
induced change in hydrophobicity [1, 4]: no change
Drop Diameter [1, 5]: 1.00 cm
Time until absorbed [1, 5]: 17.25 min
induced change in hydrophobicity [1, 5]: increase
Drop Diameter [1, 6]: 0.72 cm
Time until absorbed [1, 6]: 9.20 min
induced change in hydrophobicity [1, 6]: increase
protection of treated filters against overt colonisation by M. luteus ([2]; 48 hour growth assay, low cell count, high nutrient environment, summary of Table 4): only protected CL, HDC and HVLP against overt colonisation
M. luteus, detected CFU/cm^2 after 48 h in nutrient rich environment ([2]; Cellulose (CL)): 0 CFU/cm^2
M. luteus, detected CFU/cm^2 after 48 h in nutrient rich environment ([2]; Cellulose Acetate (CA)): 3 ± 1 CFU/cm^2
M. luteus, detected CFU/cm^2 after 48 h in nutrient rich environment ([2]; High density cellulose (HDC)): 0 CFU/cm^2
M. luteus, detected CFU/cm^2 after 48 h in nutrient rich environment ([2]; Mixed nitrocellulose/cellulose acetate esters (GSWP 0.22 μm)): 3 ± 1 CFU/cm^2
M. luteus, detected CFU/cm^2 after 48 h in nutrient rich environment ([2]; Mixed nitrocellulose/cellulose acetate esters (HAWP, 0.45 μm)): 4 ± 1 CFU/cm^2
M. luteus, detected CFU/cm^2 after 48 h in nutrient rich environment ([2]; Polycarbonate (PC, 0.45 um)): 4 ± 1 CFU/cm^2
M. luteus, detected CFU/cm^2 after 48 h in nutrient rich environment ([2]; Polyvinylidene difluoride (GVHP, 0.22 μm)): 3 ± 1 CFU/cm^2
M. luteus, detected CFU/cm^2 after 48 h in nutrient rich environment ([2]; Polyvinylidene difluoride (HVLP, 0.45 μm)): 0 CFU/cm^2
overt activity against Gram-negative organisms (Gram-negative organisms): not demonstrated
concentration at which lysis of red blood cells starts (red blood cells): > 10000 ng/mL
peptide adsorbed, Absorbance (A230) ([3]; GVHP (0.22 μm) filter): 5.3±1.1 μg/cm^2
peptide adsorbed, Absorbance (A230) ([3]; HVLP (0.45 μm) filter): 2.8±0.6 μg/cm^2
peptide adsorbed, Absorbance (A230) ([3]; Polycarbonate filter): 1.2±2.2 μg/cm^2
